What all share (assay type): ADME, organism-based
Holding throughout (parameters): dose 10 mg/kg, route intravenous

Series [1] in a line: AUC in CD1 mouse at 10 mg/kg, iv bid. Particulars: plasma.
Series [2] is described as follows: Clearance in CD1 mouse at 10 mg/kg, iv bid. Particulars: in vivo.
Series [3] is described as follows: Volume of distribution in CD1 mouse at 10 mg/kg, iv bid. Particulars: in vivo.
The nature of series [4]: Cmax in CD1 mouse at 10 mg/kg, iv bid. The conditions noted are these: in vivo.
A short description of series [5]: Half life in CD1 mouse at 10 mg/kg, iv bid. The conditions noted are these: in vivo.

By AUC is commonly meant the area under the concentration-time curve, a measure of exposure. Lower therefore signals low exposure. A word on the clearance: it is the volume of plasma or blood freed of the substance per unit of time. One may read the Vd as a proportionality between amount in the body and measured concentration, not a real space. A high value points to extensive tissue distribution. Usually Cmax stands for the maximum level reached in the sampled fluid or tissue. One may read the half-life as the time needed for the level to fall by half in the phase considered. A lower half-life goes with rapid decline.

The compound `O=C(Nc1n[nH]c2cc(C(=O)N[C@H](CN3CCCC3)c3ccccc3)sc12)c1ccc(N2CCOCC2)cc1` returned an area under the curve (AUC) in series [1] of 9 µM·h. The compound also showed a clearance in series [2] of 50 mL/min/kg. In addition, the volume of distribution (Vd) in series [3] was found to be 16 L/kg. Besides, the Cmax in series [4] was found to be 9 µM. In series [5], the half-life is 7 h.

For the origin of these results see ChEMBL document CHEMBL1255180, “Thieno[3,2-c]pyrazoles: a novel class of Aurora inhibitors with favorable antitumor activity” (Bioorg Med Chem, 2010).
